# Experimental data reported in ChEMBL document CHEMBL1132404, “2,4,6-triarylchalcogenopyrylium dyes related in structure to the antitumor agent AA1 as in vitro sensitizers for the photodynamic therapy of cancer” (J Med Chem, 1999).
# How the values were obtained:
# [1] = system: R3230AC; assay: Cell viability was measured against R3230AC rat mammary adenocarcinoma cells at 10 uM concentration; format: functional
# [2] = Partition coefficient (logP); format: physicochemical; details: octanol/water
# [3] = Inhibition of mitochondrial Cytochrome c Oxidase.; details: concentration not given here
# [4] = (§1) The rate of hydrolysis as a function of time; format: functional
# [5] = as §1; format: ADME
logP [2],inhibition [3],k1 [5],k2 [5],SMILES,Cell viability [1],k1 [4],k2 [4]
2.2,0.82%,0.0001 s⁻¹,0.000022 s⁻¹,CN(C)c1ccc(-c2cc(-c3ccc(N(C)C)cc3)[s+]c(-c3ccc(N(C)C)cc3)c2)cc1.[Cl-],,,
1.7,0.78%,,,CN(C)c1ccc(-c2cc(-c3ccc(N(C)C)cc3)[se+]c(-c3ccc(N(C)C)cc3)c2)cc1,,0.00024 s⁻¹,1.7e-05 s⁻¹

SMILES,logP [2],inhibition [3],k1 [5],k2 [5],Cell viability [1],k1 [4],k2 [4]
CN(C)c1ccc(-c2cc(-c3ccc(N(C)C)cc3)[te+]c(-c3ccc(N(C)C)cc3)c2)cc1.[Cl-],2.3,0.38%,,,~75%,0.00024 s⁻¹,1.1e-05 s⁻¹
